Test [1] deals with GDP-bound HRAS wild-type protein (Homo sapiens, UniProt P01112). Briefly: Binding to HRAS by surface plasmon resonance (SPR), Single Cycle Kinetics. For orientation: In SPR one partner is held on a chip, and binding of the other changes the refractive index at the surface.
The target of test [2] is GDP-bound NRAS wild-type protein (Homo sapiens, UniProt P01111). As to the kind of experiment: Binding to NRAS by surface plasmon resonance (SPR), Single Cycle Kinetics.
The mark [3] stands for this setting: KD ratio, GDP-bound HRAS wild-type vs GDP-bound KRAS wild-type, SPR.
Setting [4] is: KD ratio, GDP-bound NRAS wild-type vs GDP-bound KRAS wild-type, SPR.
[5] abbreviates: SPR, GDP-bound HRAS wild-type vs GDP-bound KRAS wild-type.
Where [6] appears, read: SPR, GDP-bound NRAS wild-type vs GDP-bound KRAS wild-type.
Where [7] appears, read: SPR, GDP-bound wild-type proteins.

GDP-bound HRAS wild-type protein, sequence (P01112 whole entry): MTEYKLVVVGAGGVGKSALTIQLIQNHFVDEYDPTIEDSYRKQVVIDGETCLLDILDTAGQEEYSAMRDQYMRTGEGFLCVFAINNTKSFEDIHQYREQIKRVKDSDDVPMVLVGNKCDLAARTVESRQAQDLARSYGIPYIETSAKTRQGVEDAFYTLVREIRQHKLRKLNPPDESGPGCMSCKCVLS
GDP-bound NRAS wild-type protein, sequence (P01111 whole entry): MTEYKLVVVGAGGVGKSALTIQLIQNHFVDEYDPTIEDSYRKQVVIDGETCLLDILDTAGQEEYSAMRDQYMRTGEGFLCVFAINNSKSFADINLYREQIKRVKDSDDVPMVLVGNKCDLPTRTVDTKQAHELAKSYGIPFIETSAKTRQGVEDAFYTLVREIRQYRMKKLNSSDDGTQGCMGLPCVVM

`CC[C@H](C)[C@@H]1NC(=O)[C@H](CC)N(C)C(=O)C[C@@H](C(=O)N(C)C)N(C)C(=O)[C@H](C2CCCC2)N(C)C(=O)C2(CCC2)NC(=O)[C@@H]2CCCCN2C(=O)[C@H](CCc2cc(F)c(C(F)(F)F)c(F)c2)NC(=O)CN(C)C(=O)[C@H](Cc2ccc(C(F)(F)F)cc2)N2CCCCC[C@@H](C2=O)N(C)C(=O)CN(C)C1=O` [PP0655]: the “HRAS/KRAS (ratio of KD value with respect to GDP-bound HRAS wild-type protein to KD value with respect to KRAS)” value in test [1] (SPR) is “B (a compound having 3 or more and less than 10 is denoted as B)”. Besides, the “NRAS/KRAS (ratio of KD value with respect to GDP-bound NRAS wild-type protein to KD value with respect to KRAS)” value in test [2] (SPR) is “B (a compound having 3 or more and less than 10 is denoted as B)”.
Turning to `CCCN1C(=O)CN(C)C(=O)CN(C)C(=O)[C@H]([C@@H](C)CC)NC(=O)[C@@H]2CCCCCCOc3ccc(cc3)C[C@H]1C(=O)N(C)CC(=O)N[C@@H](CCc1cc(F)c(C(F)(F)F)c(F)c1)C(=O)N1C[C@H](OCC)C[C@H]1C(=O)NC1(CCCC1)C(=O)N(C)[C@@H](C1CCCC1)C(=O)N(C)[C@H](C(=O)N(C)C)CC(=O)N2C` [PP0896], the “HRAS/KRAS (ratio of KD value with respect to HRAS to KD value with respect to KRAS)” value in test [1] (setting [3]) was “C (A compound having a KD ratio of 0.1 or more and less than 3 is denoted as C)”. For the same compound, in test [2] (setting [4]), the “NRAS/KRAS (ratio of KD value with respect to NRAS to KD value with respect to KRAS)” value is “C (A compound having a KD ratio of 0.1 or more and less than 3 is denoted as C)”.
In the case of `CCC[C@H]1C(=O)N[C@@H]([C@@H](C)CC)C(=O)N(C)CC(=O)N(C)[C@H]2C/C=C\CCN(C2=O)[C@@H](CC2CCCCC2)C(=O)N(C)CC(=O)N[C@@H](CCc2ccc(C(F)(F)F)c(OC)c2)C(=O)N2C[C@H](OCC)C[C@H]2C(=O)N(C)C2(CCC2)C(=O)N(C)[C@@H](C(CC)CC)C(=O)N(C)[C@H](C(=O)N(C)C)CC(=O)N1C` [PP2333], the “HRAS/KRAS (ratio of KD value with respect to HRAS to KD value with respect to KRAS)” value in test [1] (setting [5]) was “A (a compound having 10 or more and less than 20 is denoted as A)”. Further, the “NRAS/KRAS (ratio of KD value with respect to NRAS to KD value with respect to KRAS)” value in test [2] (setting [6]) was “A (a compound having 10 or more and less than 20 is denoted as A)”.
Turning to `CCO[C@@H]1C[C@H]2C(=O)NC3(CCC3)C(=O)N(C)[C@@H](C3CCCC3)C(=O)N(C)[C@H](C(=O)N(C)C)CC(=O)N(C)[C@@H](CC(C)C)C(=O)N[C@@H]([C@@H](C)CC)C(=O)N(C)CC(=O)N(C)[C@H]3C[C@@H](C)CCN(C3=O)[C@@H](Cc3ccc(C(F)(F)F)cc3)C(=O)N(C)CC(=O)N[C@@H](CCc3cc(F)c(C(F)(F)F)c(F)c3)C(=O)N2C1` [PP1018], the “HRAS/KRAS (ratio of KD value with respect to HRAS to KD value with respect to KRAS)” value in test [1] (setting [3]) was “B (a compound having 3 or more and less than 10 is denoted as B)”. Further, the “NRAS/KRAS (ratio of KD value with respect to NRAS to KD value with respect to KRAS)” value in test [2] (setting [4]) is “C (A compound having a KD ratio of 0.1 or more and less than 3 is denoted as C)”.
Consider `CCCC[C@H]1C(=O)N[C@@H]([C@@H](C)CC)C(=O)N(C)CC(=O)N(C)[C@H]2C/C=C\CCN(C2=O)[C@@H](Cc2ccc(C(F)(F)F)cc2)C(=O)N(C)CC(=O)N[C@@H](CCc2cc(F)c(C(F)(F)F)c(F)c2)C(=O)N2CC(F)(F)C[C@H]2C(=O)NC2(CC(C)(C)C2)C(=O)N(C)[C@@H](C2CCCC2)C(=O)N(C)[C@H](C(=O)N(C)C)CC(=O)N1C` [PP1714], for which, in test [1] (setting [3]), the “HRAS/KRAS (ratio of KD value for HRAS to KD value for KRAS)” value is “A (a compound having 10 or more and less than 20 is denoted as A)”. Also, the “NRAS/KRAS (ratio of KD value for NRAS to KD value for KRAS)” value in test [2] (setting [4]) was “A (a compound having 10 or more and less than 20 is denoted as A)”.
For the compound `CC[C@H](C)[C@@H]1NC(=O)[C@@H]2CCC/C=C/c3ccc(cc3)C[C@@H](C(=O)N(C)CC(=O)N[C@@H](CCc3ccc(Cl)c(Cl)c3)C(=O)N3CCC[C@H]3C(=O)NC3(CC(C)(C)C3)C(=O)N(C)[C@@H](C3CCCC3)C(=O)N(C)[C@H](C(=O)N(C)CC)CC(=O)N2C)N2CC/C=C\C[C@@H](C2=O)N(C)C(=O)CN(C)C1=O` [PP2601], the “HRAS/KRAS (ratio of KD value with respect to GDP-bound HRAS wild-type protein to KD value with respect to KRAS)” value in test [1] (class symbols) is “A (a compound having 10 or more and less than 20 is denoted as A)”. Moreover, the “NRAS/KRAS (ratio of KD value with respect to GDP-bound NRAS wild-type protein to KD value with respect to KRAS)” value in test [2] (class symbols) was “A (a compound having 10 or more and less than 20 is denoted as A)”.
For the compound `CCC[C@H]1C(=O)N[C@@H](C2CCCC2)C(=O)N(C)CC(=O)N(C)[C@H]2C/C=C\CCN(C2=O)[C@@H](Cc2ccc(C)cc2)C(=O)N(C)CC(=O)N[C@@H](CCc2ccc(C(F)(F)F)c(Cl)c2)C(=O)N2C[C@H](OCC)C[C@H]2C(=O)NC2(CC(C)(C)C2)C(=O)N(C)[C@@H](CC(C)C)C(=O)N(C)[C@H](C(=O)N(C)C)CC(=O)N1C` [PP2190], the “HRAS/KRAS (ratio of KD value with respect to HRAS to KD value with respect to KRAS)” value in test [1] (setting [5]) was “A (a compound having 10 or more and less than 20 is denoted as A)”. Further, in test [2] (setting [6]), the “NRAS/KRAS (ratio of KD value with respect to NRAS to KD value with respect to KRAS)” value was “A (a compound having 10 or more and less than 20 is denoted as A)”.
Take `CCO[C@@H]1C[C@H]2C(=O)N(C)C3(CC(C)(C)C3)C(=O)N(C)[C@@H](C3CCCC3)C(=O)N(C)[C@H](C(=O)N(C)C)CC(=O)N(C)[C@H]3CCCCCCc4ccc(cc4)C[C@@H](C(=O)N(C)CC(=O)N[C@@H](CCc4ccc(C(F)(F)F)c(OC)c4)C(=O)N2C1)N1CC/C=C\C[C@@H](C1=O)N(C)C(=O)CN(C)C(=O)[C@H]([C@@H](C)CC)NC3=O` [PP3090]: the “HRAS/KRAS (ratio of KD value with respect to GDP-bound HRAS wild-type protein to KD value with respect to KRAS)” value in test [1] (setting [7]) was “B (a compound having 3 or more and less than 10 is denoted as B)”. The “NRAS/KRAS (ratio of KD value with respect to GDP-bound NRAS wild-type protein to KD value with respect to KRAS)” value in test [2] (setting [7]) is “A (a compound having 10 or more and less than 20 is denoted as A)”.

Values taken from patent US20250230193A1, “CYCLIC COMPOUND HAVING SELECTIVE KRAS INHIBITORY EFFECT ON HRAS AND NRAS” (CHUGAI SEIYAKU KABUSHIKI KAISHA, priority 2022, published 2025).
